This note sets out measurements from ChEMBL document CHEMBL1201862, “PubChem BioAssay data set” (2004).

In one assay the target is T1, Caspase-3 (Homo sapiens, UniProt P42574).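 Further: Dose-response selectivity test against caspase-3 for candidate inhibitors of sentrin-specific proteases (SENPs).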
T1 sequence (P42574 whole entry): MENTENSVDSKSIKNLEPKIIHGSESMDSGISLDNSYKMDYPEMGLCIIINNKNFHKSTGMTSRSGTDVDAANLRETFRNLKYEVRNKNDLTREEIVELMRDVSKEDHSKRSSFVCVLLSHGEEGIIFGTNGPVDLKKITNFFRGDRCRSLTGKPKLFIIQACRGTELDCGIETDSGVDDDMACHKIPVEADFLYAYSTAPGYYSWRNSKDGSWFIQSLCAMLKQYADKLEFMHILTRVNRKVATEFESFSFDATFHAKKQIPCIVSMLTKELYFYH
In kind it is functional.

The target of assay [1] is T2, Sentrin-specific protease 7 (Homo sapiens, UniProt Q9BQF6).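 Further: Luminescence-based dose-response confirmation of ultra-high-throughput screening hits, measuring inhibition of SENP7.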
T2 sequence (Q9BQF6 whole entry): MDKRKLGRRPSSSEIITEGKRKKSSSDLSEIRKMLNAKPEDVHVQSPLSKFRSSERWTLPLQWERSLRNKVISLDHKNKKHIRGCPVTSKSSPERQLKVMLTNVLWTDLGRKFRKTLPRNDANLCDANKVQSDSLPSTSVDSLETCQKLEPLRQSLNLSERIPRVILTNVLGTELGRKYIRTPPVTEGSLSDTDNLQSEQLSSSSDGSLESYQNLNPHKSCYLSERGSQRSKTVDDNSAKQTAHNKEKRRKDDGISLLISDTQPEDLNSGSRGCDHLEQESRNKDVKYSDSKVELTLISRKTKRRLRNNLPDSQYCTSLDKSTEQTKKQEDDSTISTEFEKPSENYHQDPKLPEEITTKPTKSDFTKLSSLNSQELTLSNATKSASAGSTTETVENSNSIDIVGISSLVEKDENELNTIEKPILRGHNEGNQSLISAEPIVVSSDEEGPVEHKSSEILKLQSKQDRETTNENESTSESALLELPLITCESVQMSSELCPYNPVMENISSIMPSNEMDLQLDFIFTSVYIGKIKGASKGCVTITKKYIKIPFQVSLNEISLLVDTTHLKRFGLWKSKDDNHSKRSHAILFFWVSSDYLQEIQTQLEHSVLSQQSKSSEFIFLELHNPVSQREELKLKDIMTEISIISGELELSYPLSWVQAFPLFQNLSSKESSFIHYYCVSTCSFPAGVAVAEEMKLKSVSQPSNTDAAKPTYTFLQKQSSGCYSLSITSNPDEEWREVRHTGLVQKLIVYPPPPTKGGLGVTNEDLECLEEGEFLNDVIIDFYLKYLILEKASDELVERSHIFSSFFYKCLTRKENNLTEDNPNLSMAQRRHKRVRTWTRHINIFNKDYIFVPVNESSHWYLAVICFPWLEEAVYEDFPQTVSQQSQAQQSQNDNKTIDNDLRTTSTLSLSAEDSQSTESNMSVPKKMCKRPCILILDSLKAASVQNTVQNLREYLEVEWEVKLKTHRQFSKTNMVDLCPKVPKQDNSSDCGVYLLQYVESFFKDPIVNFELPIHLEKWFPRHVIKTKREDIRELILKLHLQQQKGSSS
In kind it is functional.

Assay [2] concerns the target T3, Sentrin-specific protease 6 (Homo sapiens, UniProt Q9GZR1).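 Further: Luminescence-based dose-response confirmatory assay of SENP6 inhibition, following up an ultra-high-throughput screen.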
T3 sequence (Q9GZR1 whole entry): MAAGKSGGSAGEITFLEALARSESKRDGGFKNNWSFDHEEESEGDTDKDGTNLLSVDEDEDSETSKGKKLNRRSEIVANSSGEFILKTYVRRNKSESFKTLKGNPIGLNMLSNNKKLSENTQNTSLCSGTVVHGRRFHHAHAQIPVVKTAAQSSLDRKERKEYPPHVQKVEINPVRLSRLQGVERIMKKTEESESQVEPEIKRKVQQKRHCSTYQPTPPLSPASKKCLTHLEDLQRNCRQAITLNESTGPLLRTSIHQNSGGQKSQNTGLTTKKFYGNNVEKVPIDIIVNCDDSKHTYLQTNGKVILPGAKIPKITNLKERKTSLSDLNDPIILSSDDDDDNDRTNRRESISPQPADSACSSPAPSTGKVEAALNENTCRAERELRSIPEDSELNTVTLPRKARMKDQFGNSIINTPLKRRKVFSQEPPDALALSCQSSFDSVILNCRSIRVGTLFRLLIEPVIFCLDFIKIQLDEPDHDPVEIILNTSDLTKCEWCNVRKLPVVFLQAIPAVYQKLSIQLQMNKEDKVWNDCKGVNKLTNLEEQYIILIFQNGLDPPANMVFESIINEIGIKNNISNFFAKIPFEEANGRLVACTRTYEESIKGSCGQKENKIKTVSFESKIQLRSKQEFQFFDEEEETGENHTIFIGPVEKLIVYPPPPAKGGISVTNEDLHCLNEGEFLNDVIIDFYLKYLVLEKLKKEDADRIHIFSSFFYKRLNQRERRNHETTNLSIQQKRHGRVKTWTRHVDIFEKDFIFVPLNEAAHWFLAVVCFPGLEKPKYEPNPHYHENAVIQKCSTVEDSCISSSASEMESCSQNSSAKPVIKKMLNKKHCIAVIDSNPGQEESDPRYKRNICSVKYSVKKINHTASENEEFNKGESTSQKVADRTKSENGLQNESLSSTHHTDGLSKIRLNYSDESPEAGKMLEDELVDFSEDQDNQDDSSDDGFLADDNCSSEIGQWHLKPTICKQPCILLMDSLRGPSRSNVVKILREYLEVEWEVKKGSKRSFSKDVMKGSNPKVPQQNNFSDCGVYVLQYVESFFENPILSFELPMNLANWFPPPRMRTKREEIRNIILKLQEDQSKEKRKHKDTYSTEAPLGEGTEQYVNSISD
The class given is functional.

Assay [3] addresses T4, Sentrin-specific protease 8 (Homo sapiens, UniProt Q96LD8).
T4 sequence (Q96LD8 whole entry): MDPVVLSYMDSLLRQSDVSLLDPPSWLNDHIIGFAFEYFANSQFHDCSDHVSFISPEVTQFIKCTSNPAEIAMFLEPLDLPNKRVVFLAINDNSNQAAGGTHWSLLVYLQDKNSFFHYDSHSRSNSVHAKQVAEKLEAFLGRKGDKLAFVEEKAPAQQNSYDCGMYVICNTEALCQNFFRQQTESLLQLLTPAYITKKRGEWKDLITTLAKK
In kind it is functional.

For a further assay, the system named is HEK293. In words: EBV LMP1 TES2 canonical NF-kB signalling blockers – cell-based, HEK293, luciferase, cherry-pick, dose response (AID 588343). In kind it is functional. The note with it: Homo sapiens.
Assay [4] concerns Streptococcus sp. 'group A'. In words: Streptococcus pyogenes SK(-)GAS viability under kanamycin – luminescence, BacTiterGlo, confirmation, counter-screen for streptokinase expression inhibitor project, dose response (AID 1900). In kind it is functional, organism-based.
A further assay addresses T5, Streptokinase A (Streptococcus pyogenes serotype M1, UniProt P10520).
T5 sequence (P10520 whole entry): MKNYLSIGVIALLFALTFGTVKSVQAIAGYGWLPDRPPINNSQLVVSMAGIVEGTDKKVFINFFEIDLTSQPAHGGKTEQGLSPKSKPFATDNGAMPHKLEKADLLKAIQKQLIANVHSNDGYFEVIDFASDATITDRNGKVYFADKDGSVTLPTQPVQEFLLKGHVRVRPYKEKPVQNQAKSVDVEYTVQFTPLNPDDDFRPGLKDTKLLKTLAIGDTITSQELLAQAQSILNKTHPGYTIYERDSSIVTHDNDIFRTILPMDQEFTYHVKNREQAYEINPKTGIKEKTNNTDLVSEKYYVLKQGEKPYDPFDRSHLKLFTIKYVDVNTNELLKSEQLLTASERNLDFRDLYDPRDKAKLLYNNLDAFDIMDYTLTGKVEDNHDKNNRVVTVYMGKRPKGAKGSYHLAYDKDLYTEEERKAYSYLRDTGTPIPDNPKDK
Put plainly: viability-normalized secreted streptokinase activity reduction – plasminogen activation absorbance, OD405, dose response (AID 1914).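 Further: secreted streptokinase activity via plasminogen activation per viability signal from cell pellet.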 The class given is functional, Streptococcus pyogenes M1 GAS.

Assay [5] concerns the target Induced myeloid leukemia cell differentiation protein Mcl-1 (Homo sapiens, UniProt Q07820). In kind it is functional.
The next assay has as its system Streptococcus. Put plainly: GAS UMAA2166 growth inhibition – luminescence, BacTiterGlo, counter-screen for streptokinase expression inhibitor project, dose response (AID 1915).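 Further: potency for reduction of bacterial viability or growth.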 In kind it is functional, organism-based.
Assay [6] relates to Vero. In words: cells. In kind it is functional, cell-based. The note with it: Chlorocebus sabaeus.
The test system of assay [7] is Vero. In words: cells. In kind it is functional. The note with it: Chlorocebus sabaeus.
A further assay has as its system HeLa. In words: ATP-based viability loss in HeLa cells – cell-based, CellTiter-Glo luminescence, cherry-pick samples, cytotoxicity control for MITF activator project, dose response (AID 540259). The note with it: Homo sapiens. The class given is functional.
Assay [8] can be described thus: NIH-3T3 fibroblast cytotoxicity, dose response, cytotoxicity control, cell-based, fluorescence, Alamar Blue, secondary assay (AID 2327).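 Further: NIH-3T3 mouse fibroblasts cultured with fluconazole at 8 µg/mL.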 The class given is functional.
A short description of assay [9]: luciferase reporter signal suppression in cells – H4 neuroglioma cells, luminescence, dose response (AID 1990). In kind it is functional, cell-based.
Assay [10] can be described thus: luciferase reporter signal reduction – luminescence, H4-C neuroglioblastoma cells, dose response (AID 2458).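 Further: H4 neuroglioblastoma cells stably carrying a luciferase reporter gene fusion.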 The class given is functional, cell-based.
A further assay can be described thus: cells. The class given is functional, cell-based.
The nature of assay [11]: Luminescence Cell-Based Dose Response HTS to Identify Inhibitors of 5'UTR Stem-Loop Driven Prion Protein mRNA Translation in H4 Neuroglioblastoma Cells. [Related pubchem assays: 1827 (Project Summary), 1813 (Primary HTS)]. In kind it is functional.
Assay [12] in a line: alpha-synuclein stem-loop luciferase translation blockers – H4 neuroglioma cells, luminescence, confirmation (AID 1988). The class given is functional, cell-based.
Assay [13] can be described thus: fluconazole-exposed Candida albicans growth modulators – fluorescence, retest, confirmation (AID 2467). The class given is functional, cell-based.
Assay [14] deals with T6, Serine/threonine-protein phosphatase (Candida dubliniensis (strain CD36 / CBS 7987 / NCPF 3949 / NRRLY-17841) (Yeast), UniProt B9W6M3).
T6 sequence (B9W6M3 whole entry): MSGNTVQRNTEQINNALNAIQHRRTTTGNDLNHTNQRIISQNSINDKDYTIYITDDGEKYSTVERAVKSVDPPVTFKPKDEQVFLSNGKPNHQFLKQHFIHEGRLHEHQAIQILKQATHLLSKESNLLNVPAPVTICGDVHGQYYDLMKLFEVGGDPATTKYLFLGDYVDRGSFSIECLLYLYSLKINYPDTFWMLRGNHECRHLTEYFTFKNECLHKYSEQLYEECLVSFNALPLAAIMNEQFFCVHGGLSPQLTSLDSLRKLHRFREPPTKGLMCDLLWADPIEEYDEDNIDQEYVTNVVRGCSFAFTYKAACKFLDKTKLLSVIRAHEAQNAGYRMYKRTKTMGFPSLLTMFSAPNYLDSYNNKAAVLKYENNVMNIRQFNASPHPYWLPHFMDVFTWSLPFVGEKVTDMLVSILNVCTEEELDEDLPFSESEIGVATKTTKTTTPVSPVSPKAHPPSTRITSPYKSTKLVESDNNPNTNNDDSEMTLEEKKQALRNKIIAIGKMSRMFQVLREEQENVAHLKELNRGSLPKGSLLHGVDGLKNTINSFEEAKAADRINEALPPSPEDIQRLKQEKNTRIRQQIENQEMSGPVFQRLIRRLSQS
In words: blockers of CaCl2-induced CDRE-lacZ signaling – S. cerevisiae, luminescence, secondary, dose response (AID 2388).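 Further: yeast reporter cells carrying a calcineurin-responsive lacZ construct stimulated with calcium chloride; luminescent beta-galactosidase reporter signal in whole cells rather than isolated phosphatase activity; potency for inhibition where a drop in reporter signal means calcineurin blockade.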 In kind it is functional, cell-based.

Assay [15] in a line: alpha-synuclein stem-loop translation blockers – luminescence, H4 neuroglioblastoma cells, dose confirmation, confirmation (AID 2454).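 Further: H4 neuroglioblastoma cells carrying an alpha-synuclein 5'UTR luciferase reporter; potency for inhibition of the luciferase signal.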 In kind it is functional, cell-based.
The next assay concerns the target Nonstructural protein 1 (Influenza A virus, UniProt Q194T2). The class given is functional, Influenza A virus (A/California/07/2009(H1N1)).
In assay [16] the target is Heat shock protein HSP 90-alpha (Homo sapiens, UniProt P07900). In kind it is functional, organism-based.
A further assay relates to BJ. In words: growth inhibition of engineered Ras-driven BJ cells – cell-based, alamar blue fluorescence, cherrypicked samples, dose response (AID 2631).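 Further: confirmatory dose-response assay in RAS-dependent BJ fibroblasts engineered with TERT, LT and ST, with cytotoxicity read by fluorescence.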 The note with it: Homo sapiens. In kind it is functional.
Assay [17] has as its target ATP-dependent molecular chaperone HSP82 (Candida albicans (strain WO-1) (Yeast), UniProt C4YTQ8). Put plainly: steroid-induced GRE reporter decrease in yeast – S. cerevisiae, luminescence, Hsp90 inhibitor project, dose response (AID 2400).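 Further: beta-galactosidase luminescence from glucocorticoid response element reporter as proxy for Hsp90 function; inhibitor potency where signal loss means Hsp90 inhibition.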 The class given is functional, cell-based.

Calls of active or inactive are those of the source. Some results are limits rather than exact numbers.

Chain of Induced myeloid leukemia cell differentiation protein Mcl-1 (Q07820 whole entry): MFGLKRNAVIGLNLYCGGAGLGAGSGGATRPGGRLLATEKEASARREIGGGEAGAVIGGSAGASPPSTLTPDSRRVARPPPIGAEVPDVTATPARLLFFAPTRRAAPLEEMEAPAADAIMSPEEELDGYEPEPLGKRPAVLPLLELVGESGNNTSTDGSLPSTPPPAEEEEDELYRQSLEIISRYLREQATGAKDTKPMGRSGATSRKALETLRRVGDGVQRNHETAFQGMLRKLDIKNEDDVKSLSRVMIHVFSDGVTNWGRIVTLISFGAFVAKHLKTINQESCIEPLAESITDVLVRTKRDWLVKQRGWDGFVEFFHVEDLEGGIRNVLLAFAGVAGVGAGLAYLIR
Chain of ATP-dependent molecular chaperone HSP82 (C4YTQ8 whole entry): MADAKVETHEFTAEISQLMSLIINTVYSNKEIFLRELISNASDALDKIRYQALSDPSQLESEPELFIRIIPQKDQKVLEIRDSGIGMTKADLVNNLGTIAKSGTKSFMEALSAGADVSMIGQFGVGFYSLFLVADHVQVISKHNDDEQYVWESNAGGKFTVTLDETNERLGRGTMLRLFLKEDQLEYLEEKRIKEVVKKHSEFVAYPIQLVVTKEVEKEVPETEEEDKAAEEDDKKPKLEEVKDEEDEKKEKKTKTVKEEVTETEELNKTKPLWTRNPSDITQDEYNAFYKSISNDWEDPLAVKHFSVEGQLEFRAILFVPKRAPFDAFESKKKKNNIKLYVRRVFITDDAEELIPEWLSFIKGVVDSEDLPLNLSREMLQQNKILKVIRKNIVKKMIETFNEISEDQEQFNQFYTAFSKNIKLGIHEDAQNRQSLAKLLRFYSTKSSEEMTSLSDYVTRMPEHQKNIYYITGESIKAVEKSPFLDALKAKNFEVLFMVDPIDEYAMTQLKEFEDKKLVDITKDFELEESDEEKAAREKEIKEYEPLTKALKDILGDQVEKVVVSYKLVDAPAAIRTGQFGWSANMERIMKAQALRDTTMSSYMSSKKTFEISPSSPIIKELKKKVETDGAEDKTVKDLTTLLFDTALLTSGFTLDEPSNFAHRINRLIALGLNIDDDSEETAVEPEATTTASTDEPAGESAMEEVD
Chain of Nonstructural protein 1 (Q194T2 whole entry): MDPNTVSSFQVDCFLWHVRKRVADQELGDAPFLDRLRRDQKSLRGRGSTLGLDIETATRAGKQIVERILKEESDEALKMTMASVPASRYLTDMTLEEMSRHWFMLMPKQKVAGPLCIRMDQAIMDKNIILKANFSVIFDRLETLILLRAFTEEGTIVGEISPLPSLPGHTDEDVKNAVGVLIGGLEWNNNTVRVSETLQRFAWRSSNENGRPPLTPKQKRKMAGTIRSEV

`COn1c(-c2ccccc2)nc2ccc(Cl)cc21`: the IC50 on Caspase-3 was 20.1 µM (active); in [1], 13.1 µM (active); in assay [2] it was 30 µM (active); in assay [3] it was 34.9 µM (active).

`CC1CCCN(C(=O)c2ccc(-c3ccccc3Cl)o2)C1` (stereo not drawn): the IC50 was 34.7 µM (active) at Caspase-3, 15.2 µM (active) in [1], 27.6 µM (active) in assay [2] and 31.4 µM (active) in [3].

For `COc1ccc(-c2csc3ncnc(NCCO)c23)cc1`, in the assay on HEK293, the AC50 was 13.9 µM (active).

Regarding `CC(C)CC(=NNC(=O)c1ccncc1)c1cc(Cl)ccc1O`, in the assay on HEK293, the AC50 is 4.28 µM (active).

On to `CCOC(=O)/C(=N\Nc1ncnc2ccccc12)c1ccc(OC)cc1`, for which the IC50 on Caspase-3 is 16.9 µM (active); in assay [1] it was 3.39 µM (active); in assay [2], 5.23 µM (active); in assay [3] it was 14.2 µM (active).

On to `O=C(O)c1ccccc1N/N=C/c1cc(Br)cc(Br)c1O`, for which the EC50 in [4] was 4.5 µM (active); on Streptokinase A, 32.4 µM (active); in the assay on Streptococcus it was 60.6 µM (active). Moreover, the IC50 was 8.04 µM (active) in assay [5] and 18.9 µM (active) with Vero [6]. Besides, the CC50 with Vero [7] was > 25 µM (active). Further, the AC50 with HeLa was 57.4 µM (active).

`O=C(N/N=C/c1cc2c3c(c1O)CCCN3CCC2)c1ccccc1O`: the EC50 in assay [8] was 23.7 µM (active); in assay [9], 2.89 µM (active); in assay [10], 0.558 µM (active); in assay [4], 8.16 µM (active); in the assay “cells”, 0.687 µM (active); in assay [11], 0.102 µM (active). For the same molecule, the EC50 in assay [12] is < 0.1 µM (active); on Streptokinase A, > 150 µM (not active); in assay [13] it was 0.429 µM (active); in assay [14], 18.2 µM (active); in the assay with Streptococcus, 12 µM (active); in assay [15], 0.798 µM (active). The EC50 in the assay with BJ is 22.4 µM (active); in [17], 18.1 µM (active). Besides, the IC50 at Nonstructural protein 1 was 3.22 µM (active). Besides, the AC50 with HEK293 is 5.6 µM (active); in assay [16] it was 2.14 µM (active).
